Patent publication US20240252677A1, “ONE-COMPONENT DELIVERY SYSTEM FOR NUCLEIC ACIDS” (The Trustees of the University of Pennsylvania, priority 2021, published 2024)

Key:
HEK293T cells = assay: In vitro Luc-mRNA transfection, luciferase luminescence expression in HEK293T cells; type: cell-based, human; set-up: unit not given here
Experimental: In Vitro Transfection Activity of DNPs in Human Embrionic Kidney (HEK) 293T Cells: HEK293T cells were seeded into 96-well plates (20,000 cells/well/200 μL) and cultured for 24 h at 37° C. in 5% CO2 complete cell culture media. Screening experiments were performed with nonoptimized DNPs containing naked nucleoside-modified mRNA (Karikó, et al., Immunity 2005, 23, 165-175; Pardi, et al., Methods Mol. Biol. 2013, 969, 29-42), of molar mass 664,341 encoding firefly luciferase (mRNA-Luc). A constant concentration of mRNA-Luc of 125 ng/well was used. The transIT (TransIT-mRNA transfection Kit from Mirus Bio) and MC3-based LNPs (MC3: DLin-MC3-DMA, which is the FDA approved LNP for mRNA delivery) were used as positive controls for cell transfection at a concentration of mRNA-Luc of 125 ng/well, identical to that of the tested DNPs. Subsequently cells were cultured for 24 h, the medium was aspirated under reduced pressure by a glass pipette and cells were lysed with 30 μL/well of cell culture lysis reagent (Promega). The luminescence intensity corresponding to the luciferase protein expressed was characterized and analyzed.
In vitro mRNA Delivery: Human embryonic kidney (HEK) 293T cells (American Type Culture Collection) were cultured in Dulbecco's modified Eagle's medium (DMEM) supplemented with 10% inactivated fetal bovine serum (FBS) (Gemini Bio-Products), 2 mM L-glutamine and 100 U/mL penicillin/streptomycin (Life Technologies) (complete medium). For in vitro screening experiments, HEK293T cells were seeded into 96-well plates (20,000 cells/well/200 μL) and cultured for 24 h in at 37° C. and 5% CO2 in complete media. Cell were transfected with IAJDs with encapsulated naked nucleoside-modified mRNA encoding firefly luciferase (mRNA-Luc) with fixed concentration of mRNA-Luc, 125 ng per well. The transIT (TransIT®-mRNA Transfection Kit, Mirus Bio) was used as a positive control for cell transfection, accordingly per manufacturer protocol and added to cells at the concentration of mRNA-Luc, 125 ng per well, the same as for tested particles. Cells were further cultured for 24 h, then medium was aspirated, and cells were lysed with 30 μL/well of cell culture lysis reagent (Promega). For the characterization of luminescence intensity, 2.5 μL of the lysed cells was mixed with 10 μL of luciferase assay substrate and luminescence was analyzed using a MiniLumat LB 9506 luminometer (Berthold/EG&G; Wallac).
Luminescence characterization for in vitro transfection experiments was performed by determining the luminescence intensity for in vitro Luc-mRNA transfection experiments using a MiniLumat LB 9506 luminometer (Berthold/EG&G; Wallac).
For in vitro Luc-mRNA transfection screening experiments, human embryonic kidney 293 cells (HEK 293) were seeded into 96-well plates (20,000 cells/well/200 μL) and cultured for 18-20 hours at 37° C., 5% CO2 in complete Dulbecco's modified Eagle's medium (DMEM) supplemented with 2 mM L-glutamine (Life Technologies), 100 U/mL penicillin/streptomycin (Invitrogen) and 10% fetal bovine serum (FBS, Gemini Bio-Products). Cells were transfected with DNPs with encapsulated naked nucleoside-modified mRNA encoding firefly luciferase (Luc-mRNA) at constant concentration of Luc-mRNA, 125 ng per well. Luc-mRNA complexed with TransIT (TransIT®-mRNA Transfection Kit, Mirus Bio) or encapsulated in FDA approved MC3-based LNPs were used as positive controls for cell transfection, at the concentration of Luc-mRNA of 125 ng per well, the same as for tested DNPs. After transfection cells were further cultured at 37° C., 5% CO2 for 18-20 hours, then medium was aspirated and cells were lysed with luciferase cell culture lysis reagent (30 μL/well) (Promega, Madison, WI). […]

liver = assay: In vivo mRNA delivery, IVIS imaging of organs: liver; set-up: species or system mice; key to Organs with luminescence: liver: strong: Strong meant the luminescence intensity in that organ was relatively high, compared to other organs; weak: Weak meant the luminescence intensity in that organ was relatively low, compared to other organs; conditions: for Organs with luminescence: liver (weak/strong): Table 14
Experimental: (§1) The exposure time was 1 min.
(§2) Tissue luminescence signal was measured on the IVIS imaging system using an exposure time of 60 seconds using medium binning (binning=8) to ensure that the signal obtained was within operative detection range. […] Bioluminescence imaging was performed as described above.
Tissue luminescence signal was measured on the IVIS imaging system using a certain exposure time (60, 30 or 15 seconds) and medium binning (binning=8) to ensure that the signal obtained was within operative detection range.

[1] = Stability of DNPs by DLS after storage at 5° C.; type: physicochemical; conditions: storage time 2 days; CIAJD 4.0 mg/mL; CLuc-mRNA 0.1 mg/mL; acetate buffer pH 4.0
Experimental: The stability of the DNPs as assayed by DLS. All the samples are prepared in acetate buffer. The stabilities of the constructs were ranked: Excellent (in bold)—the original sizes and distribution remains almost the same after storage; Good—the original relatively big sizes became smaller or broad size distribution became narrower; Not stable—the original relatively big sizes or broad size distribution remained almost the similar level, or the original relatively small sizes became bigger or narrow size distribution became broader.

BALB/c mice = assay: In vivo mRNA delivery in mice with DNPs, whole-body bioluminescence imaging (IVIS); conditions: mice; for Total flux (p/s): IVIS imaging 4 h after Luc-mRNA-IAJD injection
Experimental: as §1
Luminescence characterization for in vivo transfection experiments employed bioluminescence imaging with an IVIS Spectrum imaging system (PerkinElmer, Waltham, MA). Mice were anesthetized with 3% of isoflurane (Piramal Healthcare Limited) and intraperitoneally (i.p.) administered with D-luciferin (Regis Technologies) at a dose of 150 mg/kg of body weight. Ten minutes post administration of D-luciferin, mice were placed on the imaging platform while being maintained on isoflurane via a nose cone and imaged using an exposure time of 60 seconds. […] To quantify luminescent flux, an oval ROI was placed over each organ of interest and analyzed.
as §2
Luminescence Characterization for In Vivo Transfection Experiments: bioluminescence imaging was performed with an IVIS Spectrum imaging system (PerkinElmer, Waltham, MA).

[2] = HEK293T cells, Luc-mRNA 125 ng/well, n=3
[3] = Acetate buffer 10 mM pH 4.0, CIAJD 4 mg/mL, CLuc-mRNA 0.05 mg/mL, HEK293T, 125 ng/well
[4] = Citrate buffer 10 mM pH 3.0, CIAJD 4 mg/mL, CLuc-mRNA 0.05 mg/mL, HEK293T, 125 ng/well
[5] = Table 13, IVIS imaging 6 h after injection
[6] = Table 13, IVIS imaging 5 h after injection

Row | Compound | Luminescence (HEK293T cells; [2]) | Organs with luminescence: liver (weak/strong) (liver; imaging 5 h after injection) | other results
1 | CCCCCCCCCCCCCCCCCCOc1cc(COC(=O)CCCN2CCN(CCO)CC2)cc(OCCCCCCCCCCCCCCCCCC)c1 [IAJD 99, 3,5-Bis(octadecyloxy)benzyl 4-(4-(2-hydroxyethyl)piperazin-1-yl)butanoate] | 87,433 |  | Organs with luminescence: liver (weak/strong) (liver; imaging 6 h after injection): liver (weak),
2 | CCCCCCCCCCCCCCCCOc1cc(COC(=O)CCCN2CCN(C)CC2)cc(OCCCCCCCCCCCCCCCC)c1 [IAJD 75, 3,5-Bis(hexadecyloxy)benzyl 4-(4-methylpiperazin-1-yl)butanoate] | 68,572 | liver (weak), | 
3 | CCCCCCCCCCCCOc1cc(COC(=O)CCN2CCN(C)CC2)cc(OCCCCCCCCCCCC)c1 [IAJD 84, 3,5-Bis(dodecyloxy)benzyl 3-(4-methylpiperazin-1-yl)propanoate] | 205 | liver (weak), | 
4 | CCCCCCCCCCCCCCCCCCOc1cc(COC(=O)CCCN2CCN(C)CC2)cc(OCCCCCCCCCCCCCCCCCC)c1 [IAJD 98, 3,5-Bis(octadecyloxy)benzyl 4-(4-methylpiperazin-1-yl)butanoate] | 22,209 |  | Organs with luminescence: liver (weak/strong) (liver; imaging 6 h after injection): liver (weak),
5 | Diheptyl 5,5′-((5-(((4-(4-methylpiperazin-1-yl)butanoyl)oxy)methyl)-1,3-phenylene)bis(oxy)) dipentanoate [IAJD 85] |  |  | Luminescence (HEK293T cells; [3]): 734; Luminescence (HEK293T cells; Acetate buffer 10 mM pH 4.0, CIAJD 4 mg/mL, CLuc-mRNA 0.10 mg/mL, HEK293T, 125 ng/well): 2,498; Luminescence (HEK293T cells; [4]): 1,176; PDI after storage [1]: 0.271; Size (d, nm) after storage [1]: 114 nm
6 | CCCCCCCCOc1cc(COC(=O)CCCN2CCN(C)CC2)cc(OCCCCCCCC)c1 [IAJD 88, 3,5-Bis(octyloxy)benzyl 4-(4-methylpiperazin-1-yl)butanoate] | 17 |  | Organs with luminescence: liver (weak/strong) (liver; imaging 6 h after injection): liver (weak),
7 | CCCCCCCCOc1cc(COC(=O)CCCN2CCN(CCO)CC2)cc(OCCCCCCCC)c1 [IAJD 89] | 55 |  | Organs with luminescence: liver (weak/strong) (liver; imaging 6 h after injection): liver (weak),
8 | CCCCC(CC)COc1ccc(COC(=O)CCCN2CCN(C)CC2)cc1OCC(CC)CCCC (stereo not shown) [IAJD 103, 3,4-Bis((2-ethylhexyl)oxy)benzyl 4-(4-methylpiperazin-1-yl)butanoate] | 19 |  | Organs with luminescence (BALB/c mice; [5]): Lung, spleen
9 | CCCCCCCCCCCCOc1cc(COC(=O)CCCN2CCN(CCO)CC2)cc(OCCCCCCCCCCCC)c1 [IAJD 71, 3,5-Bis(dodecyloxy)benzyl 4-(4-(2-hydroxyethyl)piperazin-1-yl)butanoate] | 473,548 | liver (weak), | Organs with luminescence: liver (liver; Table 17, mice, IVIS, 4-6 h after injection, intensity relative to other organs): liver (weak),
10 | CCCCCCCCCCCCOc1ccc(COC(=O)CCCN2CCN(C)CC2)cc1OCCCCCCCCCCCC [IAJD 78, 3,4-Bis(dodecyloxy)benzyl 4-(4-methylpiperazin-1-yl)butanoate] | 8,688 |  | Organs with luminescence (BALB/c mice; [6]): Lung, spleen
11 | CCCCC(CC)COc1cc(COC(=O)CCCN2CCN(C)CC2)cc(OCC(CC)CCCC)c1OCC(CC)CCCC (stereo not shown) [IAJD 96, 3,4,5-Tris((2-ethylhexyl)oxy)benzyl 4-(4-methylpiperazin-1-yl)butanoate] | 22,799 | liver (weak), | 
12 | 3,5-Bis(dodecyloxy)benzyl 3-(4-methylpiperazin-1-yl)propanoate [IAJD 84] |  |  | Luminescence (HEK293T cells; [3]): 3,876; Luminescence (HEK293T cells; Acetate buffer 10 mM pH 5.2, CIAJD 4 mg/mL, CLuc-mRNA 0.10 mg/mL, HEK293T, 125 ng/well): 18,268; Luminescence (HEK293T cells; [4]): 819; Organs with luminescence (BALB/c mice; 4 h from injection, CIAJD 4.0 mg/mL, CLuc-mRNA 0.1 mg/mL, acetate buffer pH 5.2): Lung, spleen
13 | CCCCCCCCCOc1cc(COC(=O)CCCN2CCN(C)CC2)cc(OCCCCCCCCC)c1 [IAJD 77, 3,5-Bis(nonyloxy)benzyl 4-(4-methylpiperazin-1-yl)butanoate] | 129 | liver (weak), | 
14 | CCCCCCCCCCCCOCC(COCCCCCCCCCCCC)(COCCCCCCCCCCCC)COC(=O)CCCN1CCN(CCO)CC1 [IAJD 83, 3-(Dodecyloxy)-2,2-bis((dodecyloxy)methyl)propyl 4-(4-(2-hydroxyethyl)piperazin-1-yl)butanoate] | 68,691 | liver (weak), | 
15 | CCCCC(CC)COc1cc(COC(=O)CCCN2CCN(C)CC2)cc(OCC(CC)CCCC)c1 (stereo not shown) [IAJD 76, 3,5-Bis((2-ethylhexyl)oxy)benzyl 4-(4-methylpiperazin-1-yl)butanoate] | 17 | liver (weak), | 
16 | CCCCCCCCCCCCOCC(COCCCCCCCCCCCC)(COCCCCCCCCCCCC)COC(=O)CCCN1CCN(C)CC1 [IAJD 82, 3-(Dodecyloxy)-2,2-bis((dodecyloxy)methyl)propyl 4-(4-methylpiperazin-1-yl)butanoate] | 17 |  | Organs with luminescence (BALB/c mice; [6]): spleen
17 | CCCCCCCCCCCCOc1cc(COC(=O)CCCN2CCCCC2)cc(OCCCCCCCCCCCC)c1 [IAJD 65, 3,5-Bis(dodecyloxy)benzyl 4-(piperidin-1-yl)butanoate] | 18 |  | Total flux (p/s) (BALB/c mice; Table 13): 0 p/s; Total flux (p/s) (BALB/c mice; Table 14): 0 p/s
18 | CCCCCCCCCCCCCCOc1cc(CNC(=O)CCCN2CCN(C)CC2)cc(OCCCCCCCCCCCCCC)c1 [IAJD 108, N-(3,5-bis(tetradecyloxy)benzyl)-4-(4-methylpiperazin-1-yl)butanamide] | 136,424 |  | Organs with luminescence (BALB/c mice; [5]): Lung, spleen
